Experimental data reported in article PMC8500670, “A selective WDR5 degrader inhibits acute myeloid leukemia in patient-derived mouse models” (Science translational medicine, 2021).

Tests used:
Test in all cases: biochemical
EZH1 Complex = EZH1 Complex (Homo sapiens, UniProt Q92800); design: complex; protein methyltransferase inhibition panel, single concentration, duplicate
Procedure: (§1) We next assessed selectivity of MS67 against 22 protein methyltransferases (table S2) and a broad panel of common drug targets including 45 kinases (table S3) and 44 G protein–coupled receptors (GPCR), ion channels, and transporters (table S4). […] We subsequently determined that MS67 had moderate binding affinity (Ki = 1.0 ± 0.8 μM) to Sigma 2 receptor (fig. S10).

PRMT5/MEP50 Complex = PRMT5/MEP50 Complex (Homo sapiens, UniProt O14744); design: complex; protein methyltransferase inhibition panel, single concentration, duplicate
Sequence of PRMT5/MEP50 Complex (O14744 whole entry): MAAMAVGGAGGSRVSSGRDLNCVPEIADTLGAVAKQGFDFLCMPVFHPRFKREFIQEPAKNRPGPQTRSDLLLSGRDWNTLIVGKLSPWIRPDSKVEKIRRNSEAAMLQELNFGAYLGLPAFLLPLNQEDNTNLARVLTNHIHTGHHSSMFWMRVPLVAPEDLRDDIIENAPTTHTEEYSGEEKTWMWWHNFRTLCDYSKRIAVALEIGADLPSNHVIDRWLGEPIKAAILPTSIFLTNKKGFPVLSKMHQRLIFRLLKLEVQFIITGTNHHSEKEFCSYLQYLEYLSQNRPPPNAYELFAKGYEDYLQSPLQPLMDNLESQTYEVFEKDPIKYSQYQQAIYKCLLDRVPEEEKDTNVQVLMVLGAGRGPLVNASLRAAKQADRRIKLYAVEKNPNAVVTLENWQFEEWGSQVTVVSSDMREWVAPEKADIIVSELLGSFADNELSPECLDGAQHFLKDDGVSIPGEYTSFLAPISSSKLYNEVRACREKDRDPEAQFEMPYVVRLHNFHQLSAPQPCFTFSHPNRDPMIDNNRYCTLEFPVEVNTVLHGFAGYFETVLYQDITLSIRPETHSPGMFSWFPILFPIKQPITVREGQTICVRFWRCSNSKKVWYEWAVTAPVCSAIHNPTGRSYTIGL
Sequence of PRMT5/MEP50 Complex (Q9BQA1 whole entry partner): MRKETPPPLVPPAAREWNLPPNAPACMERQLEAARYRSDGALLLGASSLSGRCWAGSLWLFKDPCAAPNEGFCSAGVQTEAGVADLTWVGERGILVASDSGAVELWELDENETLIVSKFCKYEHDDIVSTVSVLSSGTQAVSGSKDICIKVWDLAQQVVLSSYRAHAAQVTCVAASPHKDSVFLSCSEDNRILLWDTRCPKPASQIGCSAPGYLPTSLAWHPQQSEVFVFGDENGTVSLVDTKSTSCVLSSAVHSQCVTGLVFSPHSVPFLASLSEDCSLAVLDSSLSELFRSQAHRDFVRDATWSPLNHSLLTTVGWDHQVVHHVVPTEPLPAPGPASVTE
Procedure: as §1

c-RAF(h) = target: T1, c-RAF(h) (Homo sapiens, UniProt P04049); design: kinase selectivity panel, activity as per cent of control, single concentration in duplicate; conditions: read-out: % of control remaining
T1 construct: gene RAF1
Procedure: as §1

KDR(h) = KDR(h) (Homo sapiens, UniProt P35968); design: kinase selectivity panel, activity as per cent of control, single concentration in duplicate; conditions: read-out: % of control remaining
Sequence of KDR(h) (P35968 whole entry): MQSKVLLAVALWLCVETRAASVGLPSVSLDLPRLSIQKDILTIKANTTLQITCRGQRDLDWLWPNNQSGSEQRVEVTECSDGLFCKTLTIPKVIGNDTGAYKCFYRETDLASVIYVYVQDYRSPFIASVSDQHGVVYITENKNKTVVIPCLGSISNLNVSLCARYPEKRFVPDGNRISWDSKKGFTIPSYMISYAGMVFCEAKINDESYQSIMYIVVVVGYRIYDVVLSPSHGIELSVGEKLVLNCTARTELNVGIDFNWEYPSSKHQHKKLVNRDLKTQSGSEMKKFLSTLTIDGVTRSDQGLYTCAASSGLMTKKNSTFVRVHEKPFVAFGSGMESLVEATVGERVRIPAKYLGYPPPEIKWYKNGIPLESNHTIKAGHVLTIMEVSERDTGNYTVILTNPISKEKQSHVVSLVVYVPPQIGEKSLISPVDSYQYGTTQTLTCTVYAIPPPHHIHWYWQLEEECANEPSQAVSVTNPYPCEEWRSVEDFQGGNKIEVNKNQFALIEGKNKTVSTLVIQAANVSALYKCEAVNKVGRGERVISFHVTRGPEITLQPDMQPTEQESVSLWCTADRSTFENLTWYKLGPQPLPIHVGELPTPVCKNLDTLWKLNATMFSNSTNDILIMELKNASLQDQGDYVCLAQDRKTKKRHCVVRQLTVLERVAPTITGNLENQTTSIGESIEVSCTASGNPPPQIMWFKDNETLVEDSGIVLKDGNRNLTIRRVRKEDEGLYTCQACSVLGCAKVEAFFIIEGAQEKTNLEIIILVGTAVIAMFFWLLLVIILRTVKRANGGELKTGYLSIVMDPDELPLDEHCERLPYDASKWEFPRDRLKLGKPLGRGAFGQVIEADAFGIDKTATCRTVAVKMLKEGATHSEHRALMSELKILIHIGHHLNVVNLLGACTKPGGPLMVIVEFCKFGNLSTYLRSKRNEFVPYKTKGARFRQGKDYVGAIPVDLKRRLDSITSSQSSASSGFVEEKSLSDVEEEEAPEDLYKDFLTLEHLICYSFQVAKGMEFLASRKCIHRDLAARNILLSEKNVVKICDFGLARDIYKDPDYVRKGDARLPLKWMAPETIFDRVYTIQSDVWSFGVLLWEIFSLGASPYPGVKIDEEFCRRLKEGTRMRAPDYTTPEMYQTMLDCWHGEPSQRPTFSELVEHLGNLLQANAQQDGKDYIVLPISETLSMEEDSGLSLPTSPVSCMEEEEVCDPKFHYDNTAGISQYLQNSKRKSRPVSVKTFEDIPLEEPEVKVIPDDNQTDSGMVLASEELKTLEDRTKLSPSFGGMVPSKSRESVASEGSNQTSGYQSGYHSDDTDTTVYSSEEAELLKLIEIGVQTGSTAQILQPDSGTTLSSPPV
Procedure: as §1

IRAK4(h) = IRAK4(h) (Homo sapiens, UniProt Q9NWZ3); design: kinase selectivity panel, activity as per cent of control, single concentration in duplicate; conditions: read-out: % of control remaining
Procedure: as §1

FGFR1(h) = FGFR1(h) (Homo sapiens, UniProt P11362); design: kinase selectivity panel, activity as per cent of control, single concentration in duplicate; conditions: read-out: % of control remaining
Procedure: as §1

CaMKIIα(h) = target: T2, CaMKIIα(h) (Homo sapiens, UniProt Q9UQM7); design: kinase selectivity panel, activity as per cent of control, single concentration in duplicate; conditions: read-out: % of control remaining
T2 construct: gene CAMK2A
Procedure: as §1

Aurora-A(h) = target: T3, Aurora-A(h) (Homo sapiens, UniProt O14965); design: kinase selectivity panel, activity as per cent of control, single concentration in duplicate; conditions: read-out: % of control remaining
T3 construct: gene AURKA
Procedure: as §1

SAPK2a(h) = target: T4, SAPK2a(h) (Homo sapiens, UniProt Q16539); design: kinase selectivity panel, activity as per cent of control, single concentration in duplicate; conditions: read-out: % of control remaining
T4 construct: gene MAPK14
T4 sequence (Q16539 whole entry): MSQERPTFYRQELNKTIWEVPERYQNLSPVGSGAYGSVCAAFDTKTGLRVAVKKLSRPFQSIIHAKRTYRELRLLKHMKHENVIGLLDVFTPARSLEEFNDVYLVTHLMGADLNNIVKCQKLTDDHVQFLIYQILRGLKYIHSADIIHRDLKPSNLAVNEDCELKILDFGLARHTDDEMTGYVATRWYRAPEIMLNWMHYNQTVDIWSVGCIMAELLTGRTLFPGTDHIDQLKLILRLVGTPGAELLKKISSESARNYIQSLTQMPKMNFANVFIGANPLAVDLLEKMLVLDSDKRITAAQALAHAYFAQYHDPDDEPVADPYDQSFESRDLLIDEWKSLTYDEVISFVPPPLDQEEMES
Procedure: as §1

PKA(h) = target: T5, PKA(h) (Homo sapiens, UniProt P17612); design: kinase selectivity panel, activity as per cent of control, single concentration in duplicate; conditions: read-out: % of control remaining
T5 construct: gene PRKACA
Procedure: as §1

NEK2(h) = NEK2(h) (Homo sapiens, UniProt P51955); design: kinase selectivity panel, activity as per cent of control, single concentration in duplicate; conditions: read-out: % of control remaining
Procedure: as §1

Met(h) = Met(h) (Homo sapiens, UniProt P08581); design: kinase selectivity panel, activity as per cent of control, single concentration in duplicate; conditions: read-out: % of control remaining
Procedure: as §1

EphB4(h) = EphB4(h) (Homo sapiens, UniProt P54760); design: kinase selectivity panel, activity as per cent of control, single concentration in duplicate; conditions: read-out: % of control remaining
Procedure: as §1

Plk1(h) = Plk1(h) (Homo sapiens, UniProt P53350); design: kinase selectivity panel, activity as per cent of control, single concentration in duplicate; conditions: read-out: % of control remaining
Procedure: as §1

MARK1(h) = MARK1(h) (Homo sapiens, UniProt Q9P0L2); design: kinase selectivity panel, activity as per cent of control, single concentration in duplicate; conditions: read-out: % of control remaining
Procedure: as §1

FGFR3(h) = FGFR3(h) (Homo sapiens, UniProt P22607); design: kinase selectivity panel, activity as per cent of control, single concentration in duplicate; conditions: read-out: % of control remaining
Sequence of FGFR3(h) (P22607 whole entry): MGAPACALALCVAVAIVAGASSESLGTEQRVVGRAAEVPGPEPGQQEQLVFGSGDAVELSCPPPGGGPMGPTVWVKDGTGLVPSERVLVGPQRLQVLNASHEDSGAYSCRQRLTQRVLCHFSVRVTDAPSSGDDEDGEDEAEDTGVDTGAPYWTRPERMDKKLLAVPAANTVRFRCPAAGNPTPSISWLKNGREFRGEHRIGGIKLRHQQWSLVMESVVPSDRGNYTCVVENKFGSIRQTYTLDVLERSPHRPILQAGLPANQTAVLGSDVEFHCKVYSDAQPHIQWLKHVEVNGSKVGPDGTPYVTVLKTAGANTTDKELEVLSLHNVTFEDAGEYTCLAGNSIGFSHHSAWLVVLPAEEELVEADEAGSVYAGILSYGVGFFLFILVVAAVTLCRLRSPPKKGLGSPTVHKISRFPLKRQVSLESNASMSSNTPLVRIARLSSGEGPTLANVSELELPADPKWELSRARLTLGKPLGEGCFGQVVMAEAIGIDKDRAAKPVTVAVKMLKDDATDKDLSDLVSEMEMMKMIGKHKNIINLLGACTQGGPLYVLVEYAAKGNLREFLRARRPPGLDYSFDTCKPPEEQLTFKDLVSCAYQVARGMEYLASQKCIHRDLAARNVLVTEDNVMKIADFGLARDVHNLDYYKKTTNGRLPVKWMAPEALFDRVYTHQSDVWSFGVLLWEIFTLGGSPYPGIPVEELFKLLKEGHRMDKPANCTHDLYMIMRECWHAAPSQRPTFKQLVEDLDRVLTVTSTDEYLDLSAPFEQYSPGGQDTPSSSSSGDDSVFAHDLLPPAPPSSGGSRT
Procedure: as §1

IR(h) = target: T6, IR(h) (Homo sapiens, UniProt P06213); design: kinase selectivity panel, activity as per cent of control, single concentration in duplicate; conditions: read-out: % of control remaining
T6 construct: gene INSR
Procedure: as §1

Abl(h) = target: T7, Abl(h) (Homo sapiens, UniProt P00519); design: kinase selectivity panel, activity as per cent of control, single concentration in duplicate; conditions: read-out: % of control remaining
T7 construct: gene ABL1
Procedure: as §1

EphA3(h) = EphA3(h) (Homo sapiens, UniProt P29320); design: kinase selectivity panel, activity as per cent of control, single concentration in duplicate; conditions: read-out: % of control remaining
Procedure: as §1

PKBα(h) = target: T8, PKBα(h) (Homo sapiens, UniProt P31749); design: kinase selectivity panel, activity as per cent of control, single concentration in duplicate; conditions: read-out: % of control remaining
T8 construct: gene AKT1
Procedure: as §1

MAPKAP-K2(h) = target: T9, MAPKAP-K2(h) (Homo sapiens, UniProt P49137); design: kinase selectivity panel, activity as per cent of control, single concentration in duplicate; conditions: read-out: % of control remaining
T9 construct: gene MAPKAPK2
Procedure: as §1

SIK(h) = target: T10, SIK(h) (Homo sapiens, UniProt P57059); design: kinase selectivity panel, activity as per cent of control, single concentration in duplicate; conditions: read-out: % of control remaining
T10 construct: gene SIK1
T10 sequence (P57059 whole entry): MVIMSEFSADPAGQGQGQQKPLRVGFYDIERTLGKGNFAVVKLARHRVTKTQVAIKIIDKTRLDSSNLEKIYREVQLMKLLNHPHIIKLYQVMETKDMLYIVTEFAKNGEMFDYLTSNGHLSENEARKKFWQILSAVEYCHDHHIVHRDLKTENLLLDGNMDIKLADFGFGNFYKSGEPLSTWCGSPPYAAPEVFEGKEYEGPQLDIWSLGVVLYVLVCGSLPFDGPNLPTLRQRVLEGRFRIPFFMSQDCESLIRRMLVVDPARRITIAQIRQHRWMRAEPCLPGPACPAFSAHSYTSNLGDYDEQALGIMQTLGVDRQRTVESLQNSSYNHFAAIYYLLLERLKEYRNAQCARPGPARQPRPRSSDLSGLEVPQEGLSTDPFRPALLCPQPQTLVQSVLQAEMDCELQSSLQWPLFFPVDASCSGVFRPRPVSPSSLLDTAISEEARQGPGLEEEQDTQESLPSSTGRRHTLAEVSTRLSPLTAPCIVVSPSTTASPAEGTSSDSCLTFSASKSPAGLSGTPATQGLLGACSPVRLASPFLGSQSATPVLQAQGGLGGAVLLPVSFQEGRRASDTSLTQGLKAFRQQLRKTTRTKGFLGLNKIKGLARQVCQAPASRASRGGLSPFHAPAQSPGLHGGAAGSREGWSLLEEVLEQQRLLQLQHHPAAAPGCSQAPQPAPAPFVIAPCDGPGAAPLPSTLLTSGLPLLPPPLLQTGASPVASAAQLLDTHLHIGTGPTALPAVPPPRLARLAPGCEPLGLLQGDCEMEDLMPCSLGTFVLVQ
Procedure: as §1

CHK1(h) = target: T11, CHK1(h) (Homo sapiens, UniProt O14757); design: kinase selectivity panel, activity as per cent of control, single concentration in duplicate; conditions: read-out: % of control remaining
T11 construct: gene CHEK1
Procedure: as §1

PAK2(h) = PAK2(h) (Homo sapiens, UniProt Q13177); design: kinase selectivity panel, activity as per cent of control, single concentration in duplicate; conditions: read-out: % of control remaining
Procedure: as §1

GSK3β(h) = target: T12, GSK3β(h) (Homo sapiens, UniProt P49841); design: kinase selectivity panel, activity as per cent of control, single concentration in duplicate; conditions: read-out: % of control remaining
T12 construct: gene GSK3B
Procedure: as §1

CDK1/cyclinB(h) = CDK1/cyclinB(h) (Homo sapiens, UniProt P06493); design: kinase selectivity panel, activity as per cent of control, single concentration in duplicate; conditions: read-out: % of control remaining
Sequence of CDK1/cyclinB(h) (P06493 whole entry): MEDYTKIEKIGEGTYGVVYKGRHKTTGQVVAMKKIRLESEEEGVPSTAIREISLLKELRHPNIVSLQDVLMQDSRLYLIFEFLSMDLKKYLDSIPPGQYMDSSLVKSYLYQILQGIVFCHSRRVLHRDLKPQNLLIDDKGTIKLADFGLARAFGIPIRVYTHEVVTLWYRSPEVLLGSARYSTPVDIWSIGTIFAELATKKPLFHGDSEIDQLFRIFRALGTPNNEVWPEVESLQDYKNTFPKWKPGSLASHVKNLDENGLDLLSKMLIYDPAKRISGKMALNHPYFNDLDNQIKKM
Sequence of CDK1/cyclinB(h) (P14635 whole entry partner): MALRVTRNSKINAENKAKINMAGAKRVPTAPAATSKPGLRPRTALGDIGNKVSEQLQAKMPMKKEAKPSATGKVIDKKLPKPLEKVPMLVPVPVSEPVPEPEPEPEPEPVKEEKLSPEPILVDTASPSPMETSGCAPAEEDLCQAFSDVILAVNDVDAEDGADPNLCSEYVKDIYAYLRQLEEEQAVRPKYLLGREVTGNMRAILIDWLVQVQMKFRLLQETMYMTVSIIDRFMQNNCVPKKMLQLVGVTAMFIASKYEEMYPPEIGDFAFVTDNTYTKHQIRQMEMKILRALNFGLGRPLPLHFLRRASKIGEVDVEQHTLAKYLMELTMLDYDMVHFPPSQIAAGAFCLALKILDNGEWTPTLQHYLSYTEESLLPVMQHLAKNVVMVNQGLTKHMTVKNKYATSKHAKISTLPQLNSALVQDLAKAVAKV
Procedure: as §1

SMILES: Cc1ncsc1-c1ccc([C@H](C)NC(=O)[C@@H]2C[C@@H](O)CN2C(=O)[C@@H](NC(=O)CNC(=O)c2ccc(F)c(-c3ccc(N4C[C@@H](C)N(C)[C@@H](C)C4)c(NC(=O)c4c[nH]c(=O)cc4C(F)(F)F)c3)c2)C(C)(C)C)cc1 [MS67]
- inhibition at 10 µM (EZH1 Complex): < 10%
- inhibition at 10 µM (PRMT5/MEP50 Complex): < 10%
- remaining activity at 1 µM (c-RAF(h)): 87%
- remaining activity at 1 µM (KDR(h)): 110%
- remaining activity at 1 µM (IRAK4(h)): 109%
- remaining activity at 1 µM (FGFR1(h)): 105%
- remaining activity at 1 µM (CaMKIIα(h)): 92%
- remaining activity at 1 µM (Aurora-A(h)): 108%
- remaining activity at 1 µM (SAPK2a(h)): 99%
- remaining activity at 1 µM (PKA(h)): 107%
- remaining activity at 1 µM (NEK2(h)): 111%
- remaining activity at 1 µM (Met(h)): 88%
- remaining activity at 1 µM (EphB4(h)): 150%
- remaining activity at 1 µM (Plk1(h)): 87%
- remaining activity at 1 µM (MARK1(h)): 100%
- remaining activity at 1 µM (FGFR3(h)): 104%
- remaining activity at 1 µM (IR(h)): 87%
- remaining activity at 1 µM (Abl(h)): 99%
- remaining activity at 1 µM (EphA3(h)): 125%
- remaining activity at 1 µM (PKBα(h)): 93%
- remaining activity at 1 µM (MAPKAP-K2(h)): 104%
- remaining activity at 1 µM (SIK(h)): 84%
- remaining activity at 1 µM (CHK1(h)): 78%
- remaining activity at 1 µM (PAK2(h)): 89%
- remaining activity at 1 µM (GSK3β(h)): 110%
- remaining activity at 1 µM (CDK1/cyclinB(h)): 94%
